From paper PMC3103057 (Journal of medicinal chemistry, 2011)

How the values were obtained:
[1] = target: T1, N370S glucocerebrosidase (GC) in tissue homogenate (Homo sapiens, UniProt P04062, N409S); type: biochemical; details: for reduction of activity (fold, relative to 26ad): N370S tissue homogenate AC50 compared with parent quinazoline 26ad
T1 sequence (P04062 40-536 N409S): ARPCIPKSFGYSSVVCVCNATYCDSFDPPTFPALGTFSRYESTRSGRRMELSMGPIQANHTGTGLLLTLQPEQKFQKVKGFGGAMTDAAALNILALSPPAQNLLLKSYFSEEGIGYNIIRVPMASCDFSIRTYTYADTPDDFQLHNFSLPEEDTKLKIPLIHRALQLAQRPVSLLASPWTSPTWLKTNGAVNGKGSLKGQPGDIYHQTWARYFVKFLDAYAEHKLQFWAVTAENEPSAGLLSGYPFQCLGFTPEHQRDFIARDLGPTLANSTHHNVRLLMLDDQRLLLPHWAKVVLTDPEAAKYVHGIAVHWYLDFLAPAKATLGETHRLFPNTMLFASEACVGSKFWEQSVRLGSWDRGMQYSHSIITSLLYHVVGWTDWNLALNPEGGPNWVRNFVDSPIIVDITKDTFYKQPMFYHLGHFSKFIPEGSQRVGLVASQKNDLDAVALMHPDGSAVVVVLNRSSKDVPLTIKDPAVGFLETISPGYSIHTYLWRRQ

[2] = system: wildtype and homozygous mutant N370S GC fibroblasts; experiment: Chaperone activity: translocation of GC to the lysosome in fibroblasts; type: cell-based, human; details: for amount of GC localized to the lysosome: 1 nM to 25 uM, five days incubation, wildtype and mutant fibroblasts; for lysosomal GC protein after treatment: 10 uM, wildtype and N370S GC fibroblasts, GC and LAMP1 antibody staining
purified GC = experiment: Purified enzyme assays of GC activity without exogenous cofactors; type: biochemical; details: no exogenous activating cofactors

Row | Structure (SMILES) | reduction of activity (fold, relative to 26ad) [1] | amount of GC localized to the lysosome [2] | further results
1 | Cc1ccc(S(=O)(=O)N2CCN(c3ccnc(-c4cccs4)n3)CC2)cc1 [Compound 74, 2-(thiophen-2-yl)-4-(4-tosylpiperazin-1-yl)pyrimidine] | 32 times | – | –
2 | Cc1ccc(S(=O)(=O)N2CCN(c3nc(-c4cccs4)nc4ccccc34)CC2)cc1 [Compound 26ad, 4-(4-(4-methylphenylsulfonyl)piperazin-1-yl)-2-(thiophen-2-yl)quinazoline] | – | clear increase of the amount of GC localized to the lysosome | IC50 ([1]; "blue" GC enzyme assay, tissue homogenate): 320 nM
3 | O=S(=O)(c1ccc2ccccc2c1)N1CCN(c2nc(-c3cccs3)nc3ccccc23)CC1 [Compound 14] | – | clear increase of the amount of GC localized to the lysosome | lysosomal GC protein after treatment [2]: increased lysosomal GC protein
4 | Cc1ccc(S(=O)(=O)N2CCN(c3nc(-c4cccs4)nc(C)c3C)CC2)cc1 [Compound 76, 4,5-dimethyl-2-(thiophen-2-yl)-6-(4-tosylpiperazin-1-yl)pyrimidine] | 10 times | – | –
5 | Cc1ccc(S(=O)(=O)N2CCN(c3nc(-c4cccs4)nc4cccnc34)CC2)cc1 [Compound 72, 2-(thiophen-2-yl)-4-(4-tosylpiperazin-1-yl)pyrido[3,2-d]pyrimidine] | at least 10 times | – | –
6 | O=S(=O)(c1ccc2c(c1)OCCO2)N1CCN(c2nc(-c3cccs3)nc3ccccc23)CC1 [Compound 26bs, 4-(4-(2,3-dihydrobenzo[b][1,4]dioxin-6-ylsulfonyl)piperazin-1-yl)-2-(thiophen-2-yl)quinazoline] | – | clear increase of the amount of GC localized to the lysosome | –
7 | COc1ccccc1S(=O)(=O)N1CCN(c2nc(-c3cccs3)nc3ccccc23)CC1 [Compound 26ai, 4-(4-(2-methoxyphenylsulfonyl)piperazin-1-yl)-2-(thiophen-2-yl)quinazoline] | – | clear increase of the amount of GC localized to the lysosome | –
8 | O=S(=O)(c1ccc(Cl)cc1)N1CCN(c2nc(-c3cccs3)nc3ccccc23)CC1 [Compound 10, 4-(4-(4-chlorophenylsulfonyl)piperazin-1-yl)-2-(thiophen-2-yl)quinazoline] | – | – | activity in purified enzyme assays of GC compared with tissue homogenate (purified GC): greatly diminished
9 | Cc1ccc(S(=O)(=O)N2CCN(c3nc(-c4cccs4)nc4ncccc34)CC2)cc1 [Compound 73, 2-(thiophen-2-yl)-4-(4-tosylpiperazin-1-yl)pyrido[2,3-d]pyrimidine] | at least 10 times | – | –
10 | OC[C@H]1CNC[C@@H](O)[C@@H]1O [Isofagomine, reference compound] | – | – | lysosomal GC protein after treatment [2]: increased lysosomal GC protein
